Measured values from paper PMC3034313 (Bioorganic & medicinal chemistry, 2010).
Where two headings read alike, the source gives them in different places.

Assays:
HIV-1 IIIB [1] = type: cell-based
NTD of capsid = details: affinity for the NTD; cited from earlier work
HIV-1 = details: cited from earlier work
HIV-1 IIIB [2] = assay: Antiviral activity; type: cell-based; details: Table 1; HIV-1 IIIB in MT-2 cells; 50% reduction in p24 production; ± SD

c1cc(CN2CCCNCCNCCCNCC2)ccc1CN1CCCNCCNCCCNCC1 [AMD3100]
infectivity of virions released in the supernatant (HIV-1 IIIB [1]; producer MT-2 cells treated with 1 μg/mL, positive control): no viral infectivity

Cc1ccc(NC(=O)NCCSCc2ccc(CN(C)C)o2)cc1Cl [CAP-1]
Kd (NTD of capsid): ~800 µM | HIV-1 inhibition in viral infectivity assays (HIV-1): dose-dependent HIV-1 inhibition | infectivity of particles produced after treatment (HIV-1): poorly infectious | inhibition of virus production (HIV-1): virtually no inhibition of virus production

Cc1ccc2[nH]c(=O)c(CN(Cc3ccco3)C(=O)c3ccc(Cl)cc3)cc2c1 [Compound 6]
percentage of infectivity with respect to the untreated control (HIV-1 IIIB [1]; producer MT-2 cells treated with 2.5 μM, p24-normalized, TCID50): about 60% | infectivity of virions released in the supernatant (HIV-1 IIIB [1]; producer MT-2 cells treated with 5 μM): no viral infectivity

N-Furan-2-ylmethyl-6-methoxy-N-(6-methyl-2-oxo-1,2-dihydro-quinolin-3-ylmethyl)-nicotinamide [Compound 19]
IC50 (HIV-1 IIIB [2]): > 24.8 µM
